From paper PMC7749613 (Journal of Cachexia, Sarcopenia and Muscle, 2020)
Values joined by “and” are separate entries in the source; they are usually repeats but may differ in a detail not shown here. Equal entries are not always repeated.

What was measured:
[1] = Transepithelial transport in MDCKII mock cells; format: in vitro ADME; conditions: dog, MDCK
Method: (§1) Cells were then washed three times, each with 0.5 mL pre‐warmed HBSS buffer. […] The cells were then incubated for various times up to 60 min. […] At the designated times, 15 μL of apical buffer and 50 μL of basolateral buffer were sampled. Once all the samples were collected, 0.5 mL of ice‐cold HBSS buffer was added to the well to stop transport after which the cells were rinsed three times with 0.5 mL of ice‐cold HBSS. The filters with monolayers were then detached from the chamber and placed in a scintillation vial, and the cells were lysed with 0.33 mL hyamine hydroxide.
(§2) The permeability of digoxin and rosuvastatin (prototypical substrates for MDR1 and BCRP, respectively) was determined by the following ^18 : (4) Papp=CR·VR/CD^o·A·∆Δt, where Papp is the apparent permeability, CR is the concentration of substrate in the receiver chamber, CD^o is the concentration of substrate in the donor chamber at time zero, VR is the volume of buffer in the receiver chamber, A is the surface area of the insert filter membrane, and ∆t is the time over which permeability is measured.

human P‐gp (ABCB1, MDR1) = molecular target: T1, human P‐gp (ABCB1, MDR1) (Homo sapiens, UniProt P08183); experiment: Transepithelial transport of digoxin (±TCMCB07) in MDCKII/MDR1 cells; format: in vitro ADME; conditions: MDCKII/MDR1, digoxin alone
T1 construct: host or cells: MDCKII
Method: as §1, §2

OCT2 = molecular target: T2, OCT2 (Homo sapiens, UniProt O15244); experiment: Cellular uptake in HEK293/OCT2‐transfected versus mock cells; format: in vitro ADME; conditions: OCT2, at 5.0 min
T2 construct: host or cells: HEK293
T2 sequence (O15244 1-555): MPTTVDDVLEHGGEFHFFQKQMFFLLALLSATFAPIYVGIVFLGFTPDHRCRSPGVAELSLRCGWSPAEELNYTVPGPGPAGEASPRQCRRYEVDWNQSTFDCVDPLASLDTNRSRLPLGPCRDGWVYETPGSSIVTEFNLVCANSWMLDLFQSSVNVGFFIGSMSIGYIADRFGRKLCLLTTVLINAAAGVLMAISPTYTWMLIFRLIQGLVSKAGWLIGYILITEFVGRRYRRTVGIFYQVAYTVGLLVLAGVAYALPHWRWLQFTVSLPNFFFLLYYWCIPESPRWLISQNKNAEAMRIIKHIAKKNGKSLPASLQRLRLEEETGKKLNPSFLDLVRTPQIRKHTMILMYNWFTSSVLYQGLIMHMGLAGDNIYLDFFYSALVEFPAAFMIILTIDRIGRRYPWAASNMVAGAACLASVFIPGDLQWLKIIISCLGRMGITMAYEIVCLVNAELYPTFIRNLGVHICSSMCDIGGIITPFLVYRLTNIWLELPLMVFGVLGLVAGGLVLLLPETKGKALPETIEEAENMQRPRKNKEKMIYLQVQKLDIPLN
Method: (§4) Cells were then washed three times × 1.0 mL each with pre‐warmed Hank's Balanced Salt Solution (HBSS) buffer. A 0.5 mL aliquot of uptake buffer [HBSS plus 10 mM 4‐(2‐hydroxyethyl)‐1‐piperazineethanesulfonic acid (HEPES), pH 7.4], containing the radiolabelled prototypical substrate and mannitol, was then incubated for various times up to 60 min to determine the optimal incubation time for subsequent experiments (i.e. time of sampling during linear uptake conditions). At the designated times, 1.0 mL of ice‐cold HBSS buffer was added to stop uptake after which the cells were rinsed three times with 1.0 mL with ice‐cold HBSS. Hyamine hydroxide (0.33 mL) was then added to each well to lyse the cells. The cells were transferred into a scintillation vial and mixed with 6.0 mL of cytosine scintillation cocktail. Radioactivity of the solubilized cells was determined with a dual‐channel liquid scintillation counter (Beckman LS 6000; Beckman Coulter Inc., Fullerton, CA) and the protein quantified by a bicinchoninic acid protein assay kit (Pierce Biotechnology; Rockford, IL).

MATE2‐K = MATE2‐K (Homo sapiens, UniProt Q86VL8); experiment: Cellular uptake in HEK293/MATE2‐K‐transfected versus mock cells; format: in vitro ADME; design: host or cells: HEK293; conditions: at 2.0 min
Method: (§3) However, for these studies, a different incubation buffer was used (145 mM NaCl, 3 mM KCl, 1 mM CaCl2, 0.5 mM MgCl2, 5 mM glucose, and 5 mM HEPES, pH 7.4). ^13 Moreover, intracellular acidification was achieved by preincubating the cells in buffer containing 30 mM ammonium chloride for 20 min at 37°C. […] Radioactivity and protein measurements were performed as described previously.

MATE1 = molecular target: T3, MATE1 (Homo sapiens, UniProt Q96FL8); experiment: Cellular uptake in HEK293/MATE1‐transfected versus mock cells; format: in vitro ADME; design: host or cells: HEK293; conditions: MATE1, at 2.0 min
T3 sequence (Q96FL8 1-570): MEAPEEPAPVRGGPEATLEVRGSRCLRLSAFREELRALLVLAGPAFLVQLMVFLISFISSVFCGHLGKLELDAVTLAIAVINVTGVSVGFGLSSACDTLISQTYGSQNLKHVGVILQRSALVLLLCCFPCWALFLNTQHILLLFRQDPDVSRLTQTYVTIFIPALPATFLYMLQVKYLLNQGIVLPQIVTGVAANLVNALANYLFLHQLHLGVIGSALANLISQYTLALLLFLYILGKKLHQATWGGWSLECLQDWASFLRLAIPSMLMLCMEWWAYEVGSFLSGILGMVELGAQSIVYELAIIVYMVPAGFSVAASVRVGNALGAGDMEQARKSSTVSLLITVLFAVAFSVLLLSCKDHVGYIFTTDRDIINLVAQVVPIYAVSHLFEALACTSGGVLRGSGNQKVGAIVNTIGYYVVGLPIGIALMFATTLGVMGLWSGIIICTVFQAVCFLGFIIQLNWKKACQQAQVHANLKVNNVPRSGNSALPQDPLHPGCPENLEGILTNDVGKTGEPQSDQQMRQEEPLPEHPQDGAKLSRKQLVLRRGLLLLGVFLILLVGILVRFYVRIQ
Method: as §3

[2] = In vivo mass balance study (urinary and faecal recovery) in mice
Method: Each mouse was then placed in a metabolic cage for 24 h, along with food and water, and the urine and faeces were collected. The metabolic cage was washed several times, after which 100 μL aliquots of diluted urine and faeces was placed in separate vials. Radioactivity measurements were then performed as described previously. All animal procedures were approved by the Institutional Animal Care and Use Committee at the University of Michigan, Ann Arbor.

OATP2B1 = molecular target: T4, OATP2B1 (Homo sapiens, UniProt O94956); experiment: Cellular uptake in HEK293/OATP2B1‐transfected versus mock cells; format: in vitro ADME; conditions: OATP2B1, at 1.5 min
T4 construct: host or cells: HEK293
T4 sequence (O94956 1-709): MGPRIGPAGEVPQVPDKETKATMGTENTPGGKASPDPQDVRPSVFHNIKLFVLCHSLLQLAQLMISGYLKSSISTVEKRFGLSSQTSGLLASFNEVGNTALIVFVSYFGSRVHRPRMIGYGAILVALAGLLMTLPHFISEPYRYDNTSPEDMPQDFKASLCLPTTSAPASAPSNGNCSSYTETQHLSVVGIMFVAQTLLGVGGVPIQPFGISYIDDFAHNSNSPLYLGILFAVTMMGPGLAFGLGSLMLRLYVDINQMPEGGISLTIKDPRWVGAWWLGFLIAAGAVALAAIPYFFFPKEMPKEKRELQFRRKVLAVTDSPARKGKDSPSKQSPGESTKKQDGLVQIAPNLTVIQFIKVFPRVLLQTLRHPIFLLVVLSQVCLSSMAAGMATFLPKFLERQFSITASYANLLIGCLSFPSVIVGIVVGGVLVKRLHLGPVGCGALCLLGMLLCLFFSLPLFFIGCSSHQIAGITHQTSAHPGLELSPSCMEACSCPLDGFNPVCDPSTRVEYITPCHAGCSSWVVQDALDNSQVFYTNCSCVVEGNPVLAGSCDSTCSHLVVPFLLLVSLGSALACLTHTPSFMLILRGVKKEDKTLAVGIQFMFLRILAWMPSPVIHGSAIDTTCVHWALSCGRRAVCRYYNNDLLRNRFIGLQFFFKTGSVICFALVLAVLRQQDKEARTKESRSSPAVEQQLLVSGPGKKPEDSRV
Method: as §4

OAT3 = molecular target: T5, OAT3 (Homo sapiens, UniProt Q8TCC7); experiment: Cellular uptake in HEK293/OAT3‐transfected versus mock cells; format: in vitro ADME; conditions: OAT3, at 5.0 min
T5 construct: host or cells: HEK293
T5 sequence (Q8TCC7 1-542): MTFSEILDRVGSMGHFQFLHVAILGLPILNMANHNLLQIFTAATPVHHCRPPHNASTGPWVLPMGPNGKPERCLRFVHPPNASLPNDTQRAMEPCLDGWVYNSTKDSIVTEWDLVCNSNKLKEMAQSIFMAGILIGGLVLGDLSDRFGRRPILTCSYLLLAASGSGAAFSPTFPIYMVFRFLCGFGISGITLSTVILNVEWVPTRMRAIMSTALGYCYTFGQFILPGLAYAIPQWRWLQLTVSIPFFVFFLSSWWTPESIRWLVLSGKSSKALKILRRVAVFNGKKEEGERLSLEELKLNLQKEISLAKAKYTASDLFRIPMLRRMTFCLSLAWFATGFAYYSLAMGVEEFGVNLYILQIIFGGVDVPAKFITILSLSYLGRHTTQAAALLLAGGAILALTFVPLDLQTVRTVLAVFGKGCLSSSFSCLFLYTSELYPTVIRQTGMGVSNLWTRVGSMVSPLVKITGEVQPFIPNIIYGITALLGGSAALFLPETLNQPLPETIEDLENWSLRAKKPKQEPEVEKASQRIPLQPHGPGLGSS
Method: as §4

BCRP (ABCG2) = molecular target: T6, BCRP (ABCG2) (Homo sapiens, UniProt Q9UNQ0); experiment: Transepithelial transport of rosuvastatin (±TCMCB07) in MDCKII/BCRP cells; format: in vitro ADME; conditions: human, pH 7.4, MDCKII/BCRP, rosuvastatin alone
T6 construct: host or cells: MDCKII
T6 sequence (Q9UNQ0 1-655): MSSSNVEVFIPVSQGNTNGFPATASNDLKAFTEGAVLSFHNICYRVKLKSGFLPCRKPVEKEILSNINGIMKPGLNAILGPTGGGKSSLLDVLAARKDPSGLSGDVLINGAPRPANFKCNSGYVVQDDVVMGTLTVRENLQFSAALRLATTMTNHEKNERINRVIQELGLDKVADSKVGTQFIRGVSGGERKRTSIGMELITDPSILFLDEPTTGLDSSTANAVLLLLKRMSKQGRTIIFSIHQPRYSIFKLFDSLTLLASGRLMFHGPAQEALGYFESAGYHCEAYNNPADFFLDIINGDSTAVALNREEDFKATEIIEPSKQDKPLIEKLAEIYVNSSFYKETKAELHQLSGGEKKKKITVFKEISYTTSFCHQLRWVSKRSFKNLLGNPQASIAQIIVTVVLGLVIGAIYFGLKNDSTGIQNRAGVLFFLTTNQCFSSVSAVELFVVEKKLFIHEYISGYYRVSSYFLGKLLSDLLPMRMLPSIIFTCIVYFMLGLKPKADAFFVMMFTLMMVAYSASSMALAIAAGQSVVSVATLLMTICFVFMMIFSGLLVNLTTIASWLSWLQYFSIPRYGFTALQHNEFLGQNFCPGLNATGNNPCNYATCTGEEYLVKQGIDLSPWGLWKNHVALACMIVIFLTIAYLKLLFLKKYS
Method: as §1, §2
A similar analysis can be performed for rosuvastatin by substituting ERRos for ERDig and ERRos+T for ERDig+T in Eqn 6.

[3] = table values multiplied ×10^6, cm/s

T1 sequence (P08183 whole entry): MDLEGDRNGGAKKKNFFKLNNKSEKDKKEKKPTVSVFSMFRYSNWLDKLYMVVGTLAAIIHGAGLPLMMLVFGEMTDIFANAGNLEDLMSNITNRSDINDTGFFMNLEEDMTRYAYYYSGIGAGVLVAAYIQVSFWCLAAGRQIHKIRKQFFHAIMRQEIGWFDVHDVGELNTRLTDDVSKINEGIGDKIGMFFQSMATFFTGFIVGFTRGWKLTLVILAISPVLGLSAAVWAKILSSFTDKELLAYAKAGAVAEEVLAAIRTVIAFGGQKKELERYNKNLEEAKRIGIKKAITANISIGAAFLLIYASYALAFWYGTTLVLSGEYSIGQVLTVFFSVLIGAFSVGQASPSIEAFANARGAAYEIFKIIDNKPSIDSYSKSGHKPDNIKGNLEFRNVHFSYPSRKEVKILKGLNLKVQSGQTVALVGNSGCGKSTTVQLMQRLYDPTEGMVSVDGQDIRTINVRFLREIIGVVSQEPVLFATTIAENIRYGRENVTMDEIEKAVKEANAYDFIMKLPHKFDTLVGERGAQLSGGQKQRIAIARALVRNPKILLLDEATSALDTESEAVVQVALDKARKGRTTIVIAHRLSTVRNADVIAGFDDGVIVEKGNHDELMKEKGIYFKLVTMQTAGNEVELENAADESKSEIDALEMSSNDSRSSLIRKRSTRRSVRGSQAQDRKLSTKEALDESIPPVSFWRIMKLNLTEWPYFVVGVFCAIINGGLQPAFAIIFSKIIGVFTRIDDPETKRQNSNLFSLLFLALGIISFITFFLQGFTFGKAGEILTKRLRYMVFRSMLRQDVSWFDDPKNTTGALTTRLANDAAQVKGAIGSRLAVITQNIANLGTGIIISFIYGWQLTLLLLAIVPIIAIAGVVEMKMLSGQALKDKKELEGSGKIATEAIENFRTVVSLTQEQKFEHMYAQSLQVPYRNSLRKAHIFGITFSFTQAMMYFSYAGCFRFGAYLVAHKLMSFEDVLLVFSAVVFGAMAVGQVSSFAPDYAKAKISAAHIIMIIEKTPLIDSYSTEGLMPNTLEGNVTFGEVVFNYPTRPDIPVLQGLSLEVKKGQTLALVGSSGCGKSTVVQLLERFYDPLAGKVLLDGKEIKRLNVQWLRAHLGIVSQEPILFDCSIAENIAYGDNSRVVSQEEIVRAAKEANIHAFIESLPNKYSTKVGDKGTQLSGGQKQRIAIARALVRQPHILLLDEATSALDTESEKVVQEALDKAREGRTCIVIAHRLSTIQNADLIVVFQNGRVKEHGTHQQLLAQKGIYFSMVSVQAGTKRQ
Sequence of MATE2‐K (Q86VL8 1-566 isoform Q86VL8-3): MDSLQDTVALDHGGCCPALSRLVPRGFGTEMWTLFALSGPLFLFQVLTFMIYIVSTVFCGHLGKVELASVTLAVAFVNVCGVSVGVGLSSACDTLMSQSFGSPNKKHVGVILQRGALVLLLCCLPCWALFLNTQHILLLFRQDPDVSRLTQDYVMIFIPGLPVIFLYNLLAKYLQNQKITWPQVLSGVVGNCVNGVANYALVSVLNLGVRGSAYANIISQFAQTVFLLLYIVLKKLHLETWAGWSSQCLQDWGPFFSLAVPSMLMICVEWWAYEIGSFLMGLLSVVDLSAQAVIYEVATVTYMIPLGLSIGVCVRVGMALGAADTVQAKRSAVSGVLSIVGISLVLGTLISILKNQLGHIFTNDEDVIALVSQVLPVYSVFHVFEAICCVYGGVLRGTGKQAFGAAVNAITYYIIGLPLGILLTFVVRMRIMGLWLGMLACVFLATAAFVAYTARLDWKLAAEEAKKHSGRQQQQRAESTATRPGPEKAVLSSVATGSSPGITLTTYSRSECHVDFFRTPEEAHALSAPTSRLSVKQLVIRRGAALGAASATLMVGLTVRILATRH

C[C@H]1O[C@@H](O[C@H]2[C@@H](O)C[C@H](O[C@H]3[C@@H](O)C[C@H](O[C@H]4CC[C@@]5(C)[C@H](CC[C@@H]6[C@@H]5C[C@@H](O)[C@]5(C)[C@@H](C7=CC(=O)OC7)CC[C@]65O)C4)O[C@@H]3C)O[C@@H]2C)C[C@H](O)[C@@H]1O [Digoxin, digoxin]
efflux ratio at 38 nM ([1]; pH 7.4, read-out: mean efflux ratio of digoxin): 4.5
Papp A→B at 38 nM ([1]; pH 7.4, read-out: mean permeability of digoxin (A to B)): 6.3 ×10⁻⁶ cm/s
Papp B→A at 38 nM ([1]; pH 7.4, read-out: mean permeability of digoxin (B to A)): 20.8 ×10⁻⁶ cm/s
Efflux ratio of digoxin, Papp B to A/Papp A to B (human P‐gp (ABCB1, MDR1)): 24.2 ± 7.3
Papp (A to B) of digoxin (human P‐gp (ABCB1, MDR1); [3]): 1.1 ± 0.3 ×10^−6 cm/s
Papp (B to A) of digoxin (human P‐gp (ABCB1, MDR1); [3]): 22.4 ± 4.0 ×10^−6 cm/s

C[n+]1ccc(-c2ccccc2)cc1 [1‐methyl‐4‐phenylpyridinium]
mean enhancement of uptake (transfected/mock) (OCT2): 373

CC[N+](CC)(CC)CC [tetraethylammonium]
mean enhancement of uptake (transfected/mock) (MATE2‐K): 46.7
mean enhancement of uptake (transfected/mock) (MATE1): 122

inulin
% Urinary recovery, intravenous inulin ([2]; individual mice, [3H]inulin iv bolus given with intravenous TCMCB07, 24 h collection): 104% and 93.2% and 95.1%
% Urinary recovery, intravenous inulin ([2]; individual mice, [3H]inulin iv bolus given with oral TCMCB07, 24 h collection (mouse 2: 48 h)): 106% and 100% and 107%
% Urinary recovery, intravenous inulin ([2]; mean of 3 mice, given with intravenous TCMCB07): 97.4%
% Urinary recovery, intravenous inulin ([2]; mean of 4 mice, given with oral TCMCB07): 105%

C[C@]12CC[C@@H]3c4ccc(OS(=O)(=O)O)cc4CC[C@H]3[C@@H]1CCC2=O [estrone 3‐sulfate]
mean enhancement of uptake (transfected/mock) (OATP2B1): 63.5
mean enhancement of uptake (transfected/mock) (OAT3): 470

CC(C)c1nc(N(C)S(C)(=O)=O)nc(-c2ccc(F)cc2)c1/C=C/[C@@H](O)C[C@@H](O)CC(=O)O [Rosuvastatin, rosuvastatin]
efflux ratio at 21 nM ([1]; pH 7.4, read-out: mean efflux ratio of rosuvastatin): 3.1
Papp A→B at 21 nM ([1]; pH 7.4, read-out: mean permeability of rosuvastatin (A to B)): 18 ×10⁻⁶ cm/s
Papp B→A at 21 nM ([1]; pH 7.4, read-out: mean permeability of rosuvastatin (B to A)): 55 ×10⁻⁶ cm/s
efflux ratio at 21 nM (BCRP (ABCG2); read-out: Efflux ratio of rosuvastatin, Papp B to A/Papp A to B): 7 ± 0.3
Papp A→B at 21 nM (BCRP (ABCG2); [3]): 11 ± 0.1 ×10⁻⁶ cm/s
Papp B→A at 21 nM (BCRP (ABCG2); [3]): 76.8 ± 4.1 ×10⁻⁶ cm/s
